ChEMBL document CHEMBL4507258 (2021)

Assays:
[1] = biological target: cAMP-dependent protein kinase catalytic subunit PRKX (Homo sapiens) (UniProt P51817); settings: Compound concentration 1000.0 nM
[2] = biological target: Serine/threonine-protein kinase haspin (Homo sapiens) (UniProt Q8TF76); settings: Compound concentration 1000.0 nM
[3] = biological target: Receptor tyrosine-protein kinase erbB-2 (Homo sapiens) (UniProt P04626); settings: Compound concentration 1000.0 nM
[4] = biological target: Ephrin type-A receptor 5 (Homo sapiens) (UniProt P54756); settings: Compound concentration 1000.0 nM
[5] = biological target: Ribosomal protein S6 kinase alpha-5 (Homo sapiens) (UniProt O75582); settings: Compound concentration 1000.0 nM
[6] = tested on: Phosphatidylinositol 4,5-bisphosphate 3-kinase catalytic subunit alpha isoform (Homo sapiens), P42336 [H1047Y]; settings: Compound concentration 1000.0 nM
[7] = biological target: RAC-beta serine/threonine-protein kinase (Homo sapiens) (UniProt P31751); settings: Compound concentration 1000.0 nM
[8] = biological target: Rhodopsin kinase GRK7 (Homo sapiens) (UniProt Q8WTQ7); settings: Compound concentration 1000.0 nM
[9] = biological target: Serine/threonine-protein kinase DCLK3 (Homo sapiens) (UniProt Q9C098); settings: Compound concentration 1000.0 nM
[10] = biological target: Serine/threonine-protein kinase 10 (Homo sapiens) (UniProt O94804); settings: Compound concentration 1000.0 nM
[11] = biological target: Serine/threonine-protein kinase PLK1 (Homo sapiens) (UniProt P53350); settings: Compound concentration 1000.0 nM
[12] = biological target: Casein kinase I isoform delta (Homo sapiens) (UniProt P48730); settings: Compound concentration 1000.0 nM
[13] = biological target: Mitogen-activated protein kinase 12 (Homo sapiens) (UniProt P53778); settings: Compound concentration 1000.0 nM
[14] = biological target: Casein kinase I isoform gamma-3 (Homo sapiens) (UniProt Q9Y6M4); settings: Compound concentration 1000.0 nM
[15] = biological target: Dual specificity mitogen-activated protein kinase kinase 1 (Homo sapiens) (UniProt Q02750); settings: Compound concentration 1000.0 nM
[16] = biological target: Serine/threonine-protein kinase PLK2 (Homo sapiens) (UniProt Q9NYY3); settings: Compound concentration 1000.0 nM
[17] = tested on: ALK tyrosine kinase receptor (Homo sapiens), Q9UM73 [C1156Y]; settings: Compound concentration 1000.0 nM
[18] = biological target: Protein kinase C theta type (Homo sapiens) (UniProt Q04759); settings: Compound concentration 1000.0 nM
[19] = biological target: Serine/threonine-protein kinase Chk2 (Homo sapiens) (UniProt O96017); settings: Compound concentration 1000.0 nM
[20] = biological target: Serine/threonine-protein kinase B-raf (Homo sapiens) (UniProt P15056); settings: Compound concentration 1000.0 nM
[21] = tested on: Proto-oncogene tyrosine-protein kinase receptor Ret (Homo sapiens), P07949 [V804M]; settings: Compound concentration 1000.0 nM
[22] = biological target: Sodium-dependent dopamine transporter (Homo sapiens) (UniProt Q01959); settings: Compound concentration 10.0 uM
[23] = biological target: Transient receptor potential cation channel subfamily M member 6 (Homo sapiens) (UniProt Q9BX84); settings: Compound concentration 1000.0 nM
[24] = biological target: Serine/threonine-protein kinase TAO3 (Homo sapiens) (UniProt Q9H2K8); settings: Compound concentration 1000.0 nM
[25] = biological target: Interferon-induced, double-stranded RNA-activated protein kinase (Homo sapiens) (UniProt P19525); settings: Compound concentration 1000.0 nM
[26] = biological target: Activin receptor type-1 (Homo sapiens) (UniProt Q04771); settings: Compound concentration 1000.0 nM
[27] = biological target: 5-hydroxytryptamine receptor 1B (Homo sapiens) (UniProt P28222); settings: Compound concentration 10.0 uM
[28] = biological target: Mitogen-activated protein kinase kinase kinase kinase 2 (Homo sapiens) (UniProt Q12851); settings: Compound concentration 1000.0 nM
[29] = biological target: D(1B) dopamine receptor (Homo sapiens) (UniProt P21918); settings: Compound concentration 10.0 uM
[30] = biological target: Serine/threonine-protein kinase LATS1 (Homo sapiens) (UniProt O95835); settings: Compound concentration 1000.0 nM
[31] = biological target: Serine/threonine-protein kinase Sgk2 (Homo sapiens) (UniProt Q9HBY8); settings: Compound concentration 1000.0 nM
[32] = biological target: Testis-specific serine/threonine-protein kinase 1 (Homo sapiens) (UniProt Q9BXA7); settings: Compound concentration 1000.0 nM
[33] = biological target: Serine/threonine-protein kinase Nek5 (Homo sapiens) (UniProt Q6P3R8); settings: Compound concentration 1000.0 nM
[34] = biological target: Serine/threonine-protein kinase Nek11 (Homo sapiens) (UniProt Q8NG66); settings: Compound concentration 1000.0 nM
[35] = biological target: Vascular endothelial growth factor receptor 2 (Homo sapiens) (UniProt P35968); settings: Compound concentration 1000.0 nM
[36] = biological target: Phosphatidylinositol 4-kinase beta (Homo sapiens) (UniProt Q9UBF8); settings: Compound concentration 1000.0 nM
[37] = biological target: Insulin receptor (Homo sapiens) (UniProt P06213); settings: Compound concentration 1000.0 nM
[38] = biological target: Serine/threonine-protein kinase N2 (Homo sapiens) (UniProt Q16513); settings: Compound concentration 1000.0 nM
[39] = biological target: Rho-associated protein kinase 2 (Homo sapiens) (UniProt O75116); settings: Compound concentration 1000.0 nM
[40] = biological target: Cyclin-dependent kinase 4 (Homo sapiens) (UniProt P11802); settings: Compound concentration 1000.0 nM
[41] = biological target: Tyrosine-protein kinase receptor Tie-1 (Homo sapiens) (UniProt P35590); settings: Compound concentration 1000.0 nM
Sequence of Tyrosine-protein kinase receptor Tie-1 (Homo sapiens) (P35590 whole entry): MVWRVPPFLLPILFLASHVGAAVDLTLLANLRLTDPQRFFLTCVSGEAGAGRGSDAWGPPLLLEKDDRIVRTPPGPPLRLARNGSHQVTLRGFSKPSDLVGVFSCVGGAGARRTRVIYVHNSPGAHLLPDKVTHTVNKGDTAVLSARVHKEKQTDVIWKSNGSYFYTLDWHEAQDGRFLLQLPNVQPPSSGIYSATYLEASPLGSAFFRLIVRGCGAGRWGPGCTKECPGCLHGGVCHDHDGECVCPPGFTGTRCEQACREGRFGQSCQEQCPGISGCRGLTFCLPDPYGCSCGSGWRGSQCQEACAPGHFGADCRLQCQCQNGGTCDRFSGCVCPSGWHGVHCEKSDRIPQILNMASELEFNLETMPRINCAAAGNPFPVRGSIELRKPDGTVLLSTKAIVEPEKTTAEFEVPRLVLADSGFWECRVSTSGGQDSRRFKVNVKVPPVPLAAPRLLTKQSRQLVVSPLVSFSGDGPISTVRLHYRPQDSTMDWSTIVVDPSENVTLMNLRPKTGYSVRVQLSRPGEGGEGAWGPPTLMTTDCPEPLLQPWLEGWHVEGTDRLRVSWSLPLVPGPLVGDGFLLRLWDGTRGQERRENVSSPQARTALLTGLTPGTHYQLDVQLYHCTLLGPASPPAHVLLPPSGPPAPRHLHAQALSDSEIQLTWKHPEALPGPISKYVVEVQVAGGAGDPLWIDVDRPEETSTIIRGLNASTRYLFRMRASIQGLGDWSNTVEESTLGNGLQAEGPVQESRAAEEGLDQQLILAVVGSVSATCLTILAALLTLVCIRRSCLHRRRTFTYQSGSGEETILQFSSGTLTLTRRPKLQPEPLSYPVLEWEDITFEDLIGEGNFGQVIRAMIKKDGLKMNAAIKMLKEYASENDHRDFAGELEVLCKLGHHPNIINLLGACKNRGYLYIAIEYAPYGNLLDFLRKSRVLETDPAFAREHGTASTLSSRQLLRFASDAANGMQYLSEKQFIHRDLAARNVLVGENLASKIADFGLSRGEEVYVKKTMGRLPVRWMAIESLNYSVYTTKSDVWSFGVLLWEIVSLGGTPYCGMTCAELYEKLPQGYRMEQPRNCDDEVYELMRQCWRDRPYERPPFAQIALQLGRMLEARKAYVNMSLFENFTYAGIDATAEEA

Sequence of Cyclin-dependent kinase 4 (Homo sapiens) (P11802 whole entry): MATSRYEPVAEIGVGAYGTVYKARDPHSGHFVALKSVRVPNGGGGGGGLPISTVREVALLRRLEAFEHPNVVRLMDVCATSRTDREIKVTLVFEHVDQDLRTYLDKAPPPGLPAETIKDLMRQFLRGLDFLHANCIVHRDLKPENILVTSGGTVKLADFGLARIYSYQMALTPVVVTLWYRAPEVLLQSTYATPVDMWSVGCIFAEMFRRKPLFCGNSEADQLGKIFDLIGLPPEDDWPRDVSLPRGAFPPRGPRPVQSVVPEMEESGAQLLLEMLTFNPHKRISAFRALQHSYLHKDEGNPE
Sequence of D(1B) dopamine receptor (Homo sapiens) (P21918 whole entry): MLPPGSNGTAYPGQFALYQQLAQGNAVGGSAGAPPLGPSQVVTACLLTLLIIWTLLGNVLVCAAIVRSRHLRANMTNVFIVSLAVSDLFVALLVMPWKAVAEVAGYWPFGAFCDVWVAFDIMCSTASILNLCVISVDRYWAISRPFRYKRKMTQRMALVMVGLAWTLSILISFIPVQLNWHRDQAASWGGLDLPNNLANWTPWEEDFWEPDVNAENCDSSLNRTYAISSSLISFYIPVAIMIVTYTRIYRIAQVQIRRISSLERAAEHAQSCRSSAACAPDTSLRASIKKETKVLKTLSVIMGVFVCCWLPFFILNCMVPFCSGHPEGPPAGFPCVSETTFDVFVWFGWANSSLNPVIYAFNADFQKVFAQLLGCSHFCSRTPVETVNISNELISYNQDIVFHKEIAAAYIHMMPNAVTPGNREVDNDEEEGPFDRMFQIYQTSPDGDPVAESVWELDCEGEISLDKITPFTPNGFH
Sequence of Receptor tyrosine-protein kinase erbB-2 (Homo sapiens) (P04626 whole entry): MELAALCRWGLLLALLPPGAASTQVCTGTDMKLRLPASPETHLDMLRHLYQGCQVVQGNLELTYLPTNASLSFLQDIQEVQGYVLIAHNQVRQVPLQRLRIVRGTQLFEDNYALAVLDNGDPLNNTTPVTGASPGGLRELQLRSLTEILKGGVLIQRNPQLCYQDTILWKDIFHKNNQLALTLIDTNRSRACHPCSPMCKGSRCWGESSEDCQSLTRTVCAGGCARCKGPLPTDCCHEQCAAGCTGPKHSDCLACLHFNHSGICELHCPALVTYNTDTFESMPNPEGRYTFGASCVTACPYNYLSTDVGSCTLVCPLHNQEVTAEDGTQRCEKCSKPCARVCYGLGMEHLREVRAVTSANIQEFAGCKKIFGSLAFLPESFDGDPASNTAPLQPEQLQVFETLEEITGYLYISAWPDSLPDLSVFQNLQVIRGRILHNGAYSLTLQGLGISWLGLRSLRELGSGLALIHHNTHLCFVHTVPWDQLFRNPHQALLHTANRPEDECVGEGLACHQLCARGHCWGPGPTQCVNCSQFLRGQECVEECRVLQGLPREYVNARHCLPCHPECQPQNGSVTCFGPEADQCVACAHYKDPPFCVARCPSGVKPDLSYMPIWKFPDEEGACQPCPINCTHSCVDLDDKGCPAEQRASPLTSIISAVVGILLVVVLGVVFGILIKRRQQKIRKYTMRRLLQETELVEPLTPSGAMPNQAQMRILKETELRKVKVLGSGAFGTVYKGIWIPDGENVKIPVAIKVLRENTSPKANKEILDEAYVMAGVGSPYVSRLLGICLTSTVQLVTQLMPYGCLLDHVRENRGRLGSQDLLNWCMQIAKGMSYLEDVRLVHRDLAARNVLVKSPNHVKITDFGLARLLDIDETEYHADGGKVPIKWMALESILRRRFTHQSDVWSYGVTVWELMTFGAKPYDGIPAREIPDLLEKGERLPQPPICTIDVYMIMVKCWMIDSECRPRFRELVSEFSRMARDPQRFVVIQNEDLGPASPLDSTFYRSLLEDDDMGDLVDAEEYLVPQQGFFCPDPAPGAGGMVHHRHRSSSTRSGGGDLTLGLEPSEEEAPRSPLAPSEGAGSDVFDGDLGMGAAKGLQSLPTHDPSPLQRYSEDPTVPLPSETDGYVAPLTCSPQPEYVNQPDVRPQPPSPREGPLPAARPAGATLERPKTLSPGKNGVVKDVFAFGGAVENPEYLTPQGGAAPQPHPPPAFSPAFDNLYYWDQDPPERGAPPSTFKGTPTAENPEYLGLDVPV
Sequence of Casein kinase I isoform gamma-3 (Homo sapiens) (Q9Y6M4 whole entry, looked up, canonical isoform): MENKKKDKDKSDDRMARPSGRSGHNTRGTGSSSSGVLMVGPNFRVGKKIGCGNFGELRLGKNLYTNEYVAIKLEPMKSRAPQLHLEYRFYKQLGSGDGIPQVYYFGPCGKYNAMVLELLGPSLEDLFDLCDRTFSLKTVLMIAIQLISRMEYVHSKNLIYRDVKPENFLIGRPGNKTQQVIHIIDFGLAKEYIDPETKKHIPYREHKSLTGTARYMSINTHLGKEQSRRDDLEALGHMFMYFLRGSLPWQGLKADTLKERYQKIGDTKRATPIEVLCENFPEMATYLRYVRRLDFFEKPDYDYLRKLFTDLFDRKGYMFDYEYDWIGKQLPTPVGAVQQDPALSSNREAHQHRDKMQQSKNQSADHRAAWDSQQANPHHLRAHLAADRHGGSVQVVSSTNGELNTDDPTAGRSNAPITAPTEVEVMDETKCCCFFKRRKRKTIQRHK
Sequence of Serine/threonine-protein kinase TAO3 (Homo sapiens) (Q9H2K8 whole entry): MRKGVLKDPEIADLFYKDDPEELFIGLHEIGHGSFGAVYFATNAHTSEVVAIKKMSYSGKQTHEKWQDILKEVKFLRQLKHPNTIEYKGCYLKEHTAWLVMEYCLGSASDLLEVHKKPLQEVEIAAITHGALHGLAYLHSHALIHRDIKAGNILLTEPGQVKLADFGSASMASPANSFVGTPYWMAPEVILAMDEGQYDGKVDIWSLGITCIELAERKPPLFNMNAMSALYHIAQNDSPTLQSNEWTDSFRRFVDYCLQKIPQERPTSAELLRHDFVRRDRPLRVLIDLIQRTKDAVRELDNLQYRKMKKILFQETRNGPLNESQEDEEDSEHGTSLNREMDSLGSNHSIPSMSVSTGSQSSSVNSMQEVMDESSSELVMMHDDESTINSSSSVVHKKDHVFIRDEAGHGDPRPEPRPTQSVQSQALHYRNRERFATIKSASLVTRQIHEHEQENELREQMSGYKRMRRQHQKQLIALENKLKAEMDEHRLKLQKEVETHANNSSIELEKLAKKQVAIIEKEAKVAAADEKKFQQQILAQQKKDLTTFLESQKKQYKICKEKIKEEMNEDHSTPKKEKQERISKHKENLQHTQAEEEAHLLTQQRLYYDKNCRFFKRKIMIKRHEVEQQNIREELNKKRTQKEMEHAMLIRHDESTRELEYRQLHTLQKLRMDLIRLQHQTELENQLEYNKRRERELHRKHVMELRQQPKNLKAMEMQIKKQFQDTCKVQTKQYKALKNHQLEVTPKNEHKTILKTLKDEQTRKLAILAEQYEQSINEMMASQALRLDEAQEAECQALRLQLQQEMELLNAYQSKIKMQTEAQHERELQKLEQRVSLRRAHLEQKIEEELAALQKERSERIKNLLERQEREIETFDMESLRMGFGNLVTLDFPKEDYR
Sequence of Mitogen-activated protein kinase 12 (Homo sapiens) (P53778 whole entry, canonical isoform): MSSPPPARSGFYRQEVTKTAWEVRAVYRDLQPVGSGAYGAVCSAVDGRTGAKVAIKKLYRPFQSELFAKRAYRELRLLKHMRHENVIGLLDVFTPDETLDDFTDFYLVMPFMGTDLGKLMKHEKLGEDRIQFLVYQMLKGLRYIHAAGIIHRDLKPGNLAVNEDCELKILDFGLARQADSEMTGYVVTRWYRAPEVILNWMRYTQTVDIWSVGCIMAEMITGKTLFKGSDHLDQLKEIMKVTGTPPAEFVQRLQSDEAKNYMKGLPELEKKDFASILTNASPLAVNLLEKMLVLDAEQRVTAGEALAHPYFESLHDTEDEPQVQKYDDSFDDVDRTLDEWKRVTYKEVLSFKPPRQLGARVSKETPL

CCCCN(CCCC)C(=O)CN1C[C@@H](c2cc(OC)c3c(c2)OCO3)[C@H](C(=O)O)[C@H]1CC(C)(C)CCC [A-545]
inactive: residual activity [1] 87.7% | residual activity [2] 100% | residual activity [3] 92.1% | residual activity [4] 81.9% | residual activity [5] 98.5% | residual activity [6] 92.6% | residual activity [7] 100% | residual activity [8] 90.8% | residual activity [9] 100% | residual activity [10] 82.4% | residual activity [11] 100% | residual activity [12] 98.9% | residual activity [13] 100% | residual activity [14] 100% | residual activity [15] 100% | residual activity [16] 98.4% | residual activity [17] 95.4% | residual activity [18] 78.6% | residual activity [19] 87.8% | residual activity [20] 92.3% | residual activity [21] 82.4% | inhibition [22] 23% | residual activity [23] 90.4% | residual activity [24] 67.9% | residual activity [25] 100% | residual activity [26] 100% | inhibition [27] -2.98% | residual activity [28] 100% | inhibition [29] 30.5% | residual activity [30] 75.2% | residual activity [31] 78.5% | residual activity [32] 100% | residual activity [33] 87.9% | residual activity [34] 100% | residual activity [35] 88.1% | residual activity [36] 97.6% | residual activity [37] 89% | residual activity [38] 100% | residual activity [39] 100% | residual activity [40] 92.7% | residual activity [41] 94.7%

CCCCN(CCCC)C(=O)CN1C[C@H](c2cc(OC)c3c(c2)OCO3)[C@@H](C(=O)O)[C@@H]1CC(C)(C)CCC [ABT-546]
inactive: residual activity [1] 100% | residual activity [2] 75.8% | residual activity [3] 95.6% | residual activity [4] 100% | residual activity [5] 100% | residual activity [6] 100% | residual activity [7] 100% | residual activity [8] 98.3% | residual activity [9] 91.4% | residual activity [10] 100% | residual activity [11] 73.5% | residual activity [12] 100% | residual activity [13] 100% | residual activity [14] 100% | residual activity [15] 64.8% | residual activity [16] 67.1% | residual activity [17] 100% | residual activity [18] 100% | residual activity [19] 100% | residual activity [20] 90.4% | residual activity [21] 100% | inhibition [22] -0.591% | residual activity [23] 91.6% | residual activity [24] 63.2% | residual activity [25] 100% | residual activity [26] 100% | inhibition [27] 2.64% | residual activity [28] 54.4% | inhibition [29] 17% | residual activity [30] 100% | residual activity [31] 69.9% | residual activity [32] 100% | residual activity [33] 100% | residual activity [34] 85.8% | residual activity [35] 88.7% | residual activity [36] 80.5% | residual activity [37] 75.8% | residual activity [38] 100% | residual activity [39] 85.2% | residual activity [40] 100% | residual activity [41] 100%
